Calls of active or inactive are those of the source. No cut-off for these calls is given here.
Tests used:
[1] = target: T1, Glucocorticoid receptor (Homo sapiens) (UniProt P04150); experiment: Activity at GR expressed in mouse L929 cells at 10 uM by transactivation assay relative to control; assay type: cell-based
T1 sequence (whole entry): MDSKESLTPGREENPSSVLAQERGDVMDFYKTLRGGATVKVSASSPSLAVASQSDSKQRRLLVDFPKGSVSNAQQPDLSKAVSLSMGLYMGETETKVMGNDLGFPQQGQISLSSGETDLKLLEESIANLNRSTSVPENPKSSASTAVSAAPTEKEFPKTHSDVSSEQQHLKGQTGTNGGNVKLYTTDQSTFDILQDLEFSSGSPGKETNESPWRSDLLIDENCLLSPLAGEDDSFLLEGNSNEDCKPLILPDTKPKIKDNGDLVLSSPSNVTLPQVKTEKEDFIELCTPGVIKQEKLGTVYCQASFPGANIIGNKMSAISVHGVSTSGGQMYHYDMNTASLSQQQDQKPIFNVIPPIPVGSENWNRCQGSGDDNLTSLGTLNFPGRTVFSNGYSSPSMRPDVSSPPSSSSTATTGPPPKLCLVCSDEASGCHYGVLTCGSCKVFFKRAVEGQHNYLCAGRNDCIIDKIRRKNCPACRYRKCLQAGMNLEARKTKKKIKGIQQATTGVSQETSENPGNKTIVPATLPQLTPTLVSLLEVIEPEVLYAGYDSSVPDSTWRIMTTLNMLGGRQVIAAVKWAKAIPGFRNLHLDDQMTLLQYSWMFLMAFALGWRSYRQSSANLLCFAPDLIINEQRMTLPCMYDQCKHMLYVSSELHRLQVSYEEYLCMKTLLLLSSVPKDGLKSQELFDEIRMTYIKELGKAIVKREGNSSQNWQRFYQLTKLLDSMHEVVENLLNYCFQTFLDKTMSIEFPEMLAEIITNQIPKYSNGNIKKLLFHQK

[2] = system: Liver; experiment: Effect on increase in glycogen deposition in rat liver; assay type: functional, tissue-based
[3] = target: T2, Tyrosine aminotransferase (Homo sapiens) (UniProt P17735); experiment: Induction of tyrosine aminotransferase
T2 sequence (whole entry): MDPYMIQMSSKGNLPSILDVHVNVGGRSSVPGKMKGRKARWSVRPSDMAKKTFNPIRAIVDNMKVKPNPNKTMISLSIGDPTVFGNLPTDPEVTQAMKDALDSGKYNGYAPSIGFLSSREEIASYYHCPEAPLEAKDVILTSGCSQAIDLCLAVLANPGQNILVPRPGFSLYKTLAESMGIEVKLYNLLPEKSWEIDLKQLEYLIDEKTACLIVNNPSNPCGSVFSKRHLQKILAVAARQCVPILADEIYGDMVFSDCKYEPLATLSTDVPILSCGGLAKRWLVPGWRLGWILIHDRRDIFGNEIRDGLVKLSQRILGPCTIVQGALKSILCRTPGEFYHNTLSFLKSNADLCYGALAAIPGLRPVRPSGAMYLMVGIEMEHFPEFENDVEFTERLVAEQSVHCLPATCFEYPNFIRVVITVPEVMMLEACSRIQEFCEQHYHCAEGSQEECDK

Activity [1]: inactive
Activity [3]: inactive
Structure (SMILES): C[C@]12CC[C@H]3[C@@H](CC4OC[C@@]35CCC(=O)C=C45)[C@@H]1CC[C@@H]2C(=O)CO
Activity [2]: inactive

Reference: ChEMBL document CHEMBL1141601, “Exploring the molecular basis of action of the passive antiglucocorticoid 21-hydroxy-6,19-epoxyprogesterone” (J Med Chem, 2008)
